Some targets named below: CLK2 (Homo sapiens, UniProt P49760); MAP3K1 (Homo sapiens, UniProt Q13233); PAK6 (Homo sapiens, UniProt Q9NQU5).
Common to all, as to assay: biochemical
Common to all, as to parameters: DiscoveRx KINOMEscan active site-directed competition binding; percent of control kinase bound to immobilised ligand

For the next experiment, the target named is T1, NDR1 (Homo sapiens, UniProt Q15208).
T1 construct: gene STK38

Experiment [1] has as its target T2, RSK1(Kin.Dom.2-C-terminal) (Homo sapiens, UniProt Q15418).
T2 construct: gene RPS6KA1; Kin.Dom.2-C-terminal

The next experiment has as its target T3, LZK (Homo sapiens, UniProt O43283).
T3 construct: gene MAP3K13
T3 sequence (O43283 1-966): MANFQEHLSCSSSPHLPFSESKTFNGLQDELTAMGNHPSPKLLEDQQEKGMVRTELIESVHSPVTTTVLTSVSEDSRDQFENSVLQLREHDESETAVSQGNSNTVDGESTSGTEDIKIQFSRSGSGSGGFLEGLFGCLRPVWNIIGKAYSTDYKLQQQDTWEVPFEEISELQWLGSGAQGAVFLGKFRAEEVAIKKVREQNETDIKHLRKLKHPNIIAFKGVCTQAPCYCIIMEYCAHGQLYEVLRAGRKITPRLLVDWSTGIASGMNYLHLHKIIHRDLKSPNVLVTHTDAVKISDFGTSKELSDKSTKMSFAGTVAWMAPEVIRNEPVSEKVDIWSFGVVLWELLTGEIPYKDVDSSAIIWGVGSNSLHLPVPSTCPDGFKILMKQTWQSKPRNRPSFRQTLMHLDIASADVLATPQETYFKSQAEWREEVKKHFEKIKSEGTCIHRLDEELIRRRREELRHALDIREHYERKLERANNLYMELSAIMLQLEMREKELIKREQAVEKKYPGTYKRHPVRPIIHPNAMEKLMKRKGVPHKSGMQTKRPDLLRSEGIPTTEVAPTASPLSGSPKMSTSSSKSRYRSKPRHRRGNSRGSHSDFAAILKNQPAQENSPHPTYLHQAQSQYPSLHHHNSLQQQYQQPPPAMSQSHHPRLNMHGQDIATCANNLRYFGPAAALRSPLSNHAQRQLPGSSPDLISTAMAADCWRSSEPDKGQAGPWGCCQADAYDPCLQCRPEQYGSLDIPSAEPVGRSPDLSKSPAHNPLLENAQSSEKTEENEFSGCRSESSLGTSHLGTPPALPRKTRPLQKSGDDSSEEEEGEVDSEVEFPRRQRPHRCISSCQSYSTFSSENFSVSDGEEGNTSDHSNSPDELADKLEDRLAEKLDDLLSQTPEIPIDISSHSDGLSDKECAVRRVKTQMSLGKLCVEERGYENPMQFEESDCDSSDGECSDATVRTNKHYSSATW

In another experiment the target is T4, HUNK (Homo sapiens, UniProt P57058).
T4 sequence (P57058 1-714): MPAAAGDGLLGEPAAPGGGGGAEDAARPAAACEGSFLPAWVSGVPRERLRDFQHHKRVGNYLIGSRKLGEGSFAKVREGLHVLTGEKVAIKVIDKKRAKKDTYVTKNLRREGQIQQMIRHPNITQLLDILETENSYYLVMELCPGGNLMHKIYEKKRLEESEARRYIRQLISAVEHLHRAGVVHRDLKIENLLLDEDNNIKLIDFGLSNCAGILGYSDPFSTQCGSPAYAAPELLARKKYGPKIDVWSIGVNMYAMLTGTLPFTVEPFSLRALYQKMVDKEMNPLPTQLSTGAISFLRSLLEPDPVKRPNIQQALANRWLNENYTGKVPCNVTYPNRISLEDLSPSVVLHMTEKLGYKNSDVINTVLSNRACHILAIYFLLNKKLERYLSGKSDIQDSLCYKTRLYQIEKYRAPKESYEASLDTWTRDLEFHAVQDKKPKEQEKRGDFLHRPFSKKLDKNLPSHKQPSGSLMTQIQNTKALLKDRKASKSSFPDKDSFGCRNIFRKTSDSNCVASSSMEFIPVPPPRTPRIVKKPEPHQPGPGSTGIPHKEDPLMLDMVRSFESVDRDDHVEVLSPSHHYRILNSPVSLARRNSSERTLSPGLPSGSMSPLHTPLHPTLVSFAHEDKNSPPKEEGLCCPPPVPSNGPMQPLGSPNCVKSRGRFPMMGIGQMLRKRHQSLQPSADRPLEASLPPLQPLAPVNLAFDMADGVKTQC

Where [2] appears, read: read-out: Niraparib (MK-4827) / %Ctrl @ 10000nM.
The mark [3] stands for this setting: read-out: Talazoparib (BMN 673) / %Ctrl @ 10000nM.
Setting [4] is: read-out: Rucaparib / %Ctrl @ 10000nM, binding competition, % of control.
Where [5] appears, read: read-out: Olaparib / %Ctrl @ 10000nM.

Where two headings read alike, the source gives them in different places.

Sequence of MAP3K1 (Q13233 whole entry): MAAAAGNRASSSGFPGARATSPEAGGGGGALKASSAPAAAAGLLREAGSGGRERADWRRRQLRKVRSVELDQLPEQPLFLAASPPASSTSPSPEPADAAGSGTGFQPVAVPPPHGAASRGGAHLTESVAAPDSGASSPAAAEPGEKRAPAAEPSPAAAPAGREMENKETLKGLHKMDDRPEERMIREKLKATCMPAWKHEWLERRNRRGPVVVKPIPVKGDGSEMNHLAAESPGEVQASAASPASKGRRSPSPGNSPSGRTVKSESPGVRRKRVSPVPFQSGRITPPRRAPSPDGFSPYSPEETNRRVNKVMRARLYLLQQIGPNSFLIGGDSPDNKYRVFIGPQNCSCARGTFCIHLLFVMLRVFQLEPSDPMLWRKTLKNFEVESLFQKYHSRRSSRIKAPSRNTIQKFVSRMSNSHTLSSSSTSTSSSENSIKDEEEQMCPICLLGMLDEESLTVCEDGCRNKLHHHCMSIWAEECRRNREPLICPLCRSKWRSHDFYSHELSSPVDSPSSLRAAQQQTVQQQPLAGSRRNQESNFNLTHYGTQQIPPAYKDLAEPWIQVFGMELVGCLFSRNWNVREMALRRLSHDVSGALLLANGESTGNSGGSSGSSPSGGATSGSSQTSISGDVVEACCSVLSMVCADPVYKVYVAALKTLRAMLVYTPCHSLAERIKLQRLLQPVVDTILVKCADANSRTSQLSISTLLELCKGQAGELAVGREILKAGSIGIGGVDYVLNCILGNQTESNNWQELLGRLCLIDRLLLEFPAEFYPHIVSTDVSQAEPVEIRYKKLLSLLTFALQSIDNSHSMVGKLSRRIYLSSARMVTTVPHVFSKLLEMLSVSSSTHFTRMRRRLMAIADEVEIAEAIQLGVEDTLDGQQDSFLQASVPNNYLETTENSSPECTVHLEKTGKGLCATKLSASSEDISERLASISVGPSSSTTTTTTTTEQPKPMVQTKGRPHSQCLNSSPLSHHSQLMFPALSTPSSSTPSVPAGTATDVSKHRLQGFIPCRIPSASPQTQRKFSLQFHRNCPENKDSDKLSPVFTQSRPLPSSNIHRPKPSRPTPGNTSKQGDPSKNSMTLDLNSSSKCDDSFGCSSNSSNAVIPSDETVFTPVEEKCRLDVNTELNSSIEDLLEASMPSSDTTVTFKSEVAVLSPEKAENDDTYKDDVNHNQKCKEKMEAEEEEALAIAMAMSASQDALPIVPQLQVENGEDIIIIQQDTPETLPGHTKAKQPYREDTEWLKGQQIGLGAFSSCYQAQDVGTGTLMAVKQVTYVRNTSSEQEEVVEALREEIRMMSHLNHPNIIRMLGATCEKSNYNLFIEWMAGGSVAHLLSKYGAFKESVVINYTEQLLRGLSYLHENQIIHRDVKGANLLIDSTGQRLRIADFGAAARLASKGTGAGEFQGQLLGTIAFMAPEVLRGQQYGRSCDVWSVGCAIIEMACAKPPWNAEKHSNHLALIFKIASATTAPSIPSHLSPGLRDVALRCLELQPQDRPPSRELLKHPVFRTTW
Sequence of CLK2 (P49760 whole entry): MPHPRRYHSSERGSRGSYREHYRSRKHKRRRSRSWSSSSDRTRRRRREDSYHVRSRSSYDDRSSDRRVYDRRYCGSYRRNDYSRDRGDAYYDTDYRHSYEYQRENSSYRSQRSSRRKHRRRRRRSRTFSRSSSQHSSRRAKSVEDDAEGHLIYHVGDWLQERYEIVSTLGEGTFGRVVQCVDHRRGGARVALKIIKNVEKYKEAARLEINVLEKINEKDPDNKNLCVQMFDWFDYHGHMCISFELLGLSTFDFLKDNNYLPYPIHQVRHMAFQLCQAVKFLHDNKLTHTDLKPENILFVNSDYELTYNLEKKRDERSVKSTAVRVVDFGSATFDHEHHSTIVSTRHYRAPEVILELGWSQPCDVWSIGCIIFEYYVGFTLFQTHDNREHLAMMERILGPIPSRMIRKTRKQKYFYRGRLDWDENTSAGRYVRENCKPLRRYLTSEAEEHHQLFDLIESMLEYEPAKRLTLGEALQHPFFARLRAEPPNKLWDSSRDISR
T1 sequence (Q15208 whole entry): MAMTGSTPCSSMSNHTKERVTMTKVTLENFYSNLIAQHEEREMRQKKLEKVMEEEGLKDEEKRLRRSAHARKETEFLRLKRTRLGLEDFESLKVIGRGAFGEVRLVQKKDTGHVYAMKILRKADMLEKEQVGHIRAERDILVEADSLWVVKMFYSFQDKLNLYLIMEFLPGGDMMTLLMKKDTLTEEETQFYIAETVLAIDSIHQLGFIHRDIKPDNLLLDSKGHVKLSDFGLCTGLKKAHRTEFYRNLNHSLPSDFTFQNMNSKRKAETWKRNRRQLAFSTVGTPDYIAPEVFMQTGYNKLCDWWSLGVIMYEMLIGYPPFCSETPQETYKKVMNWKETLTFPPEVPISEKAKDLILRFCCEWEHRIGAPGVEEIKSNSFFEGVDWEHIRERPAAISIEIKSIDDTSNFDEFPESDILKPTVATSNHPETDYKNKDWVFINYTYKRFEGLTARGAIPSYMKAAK
Sequence of PAK6 (Q9NQU5 whole entry): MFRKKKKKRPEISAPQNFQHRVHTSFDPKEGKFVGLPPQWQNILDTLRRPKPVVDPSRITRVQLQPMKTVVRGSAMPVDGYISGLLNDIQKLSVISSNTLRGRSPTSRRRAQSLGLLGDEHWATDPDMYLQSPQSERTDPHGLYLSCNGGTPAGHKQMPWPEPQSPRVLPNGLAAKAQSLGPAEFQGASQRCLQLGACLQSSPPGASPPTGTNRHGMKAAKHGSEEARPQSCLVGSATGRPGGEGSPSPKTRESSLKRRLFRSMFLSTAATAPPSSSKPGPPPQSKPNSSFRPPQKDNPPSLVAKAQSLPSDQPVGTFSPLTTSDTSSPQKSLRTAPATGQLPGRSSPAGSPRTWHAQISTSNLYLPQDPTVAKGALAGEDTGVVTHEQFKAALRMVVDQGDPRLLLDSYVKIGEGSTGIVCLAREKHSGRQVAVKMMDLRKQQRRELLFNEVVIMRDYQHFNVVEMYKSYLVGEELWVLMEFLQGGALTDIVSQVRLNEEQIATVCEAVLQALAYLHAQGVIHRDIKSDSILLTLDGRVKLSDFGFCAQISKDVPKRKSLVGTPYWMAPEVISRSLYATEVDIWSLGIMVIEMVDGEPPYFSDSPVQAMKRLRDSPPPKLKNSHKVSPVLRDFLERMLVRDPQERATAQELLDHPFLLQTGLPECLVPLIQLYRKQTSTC
T2 sequence (Q15418 whole entry): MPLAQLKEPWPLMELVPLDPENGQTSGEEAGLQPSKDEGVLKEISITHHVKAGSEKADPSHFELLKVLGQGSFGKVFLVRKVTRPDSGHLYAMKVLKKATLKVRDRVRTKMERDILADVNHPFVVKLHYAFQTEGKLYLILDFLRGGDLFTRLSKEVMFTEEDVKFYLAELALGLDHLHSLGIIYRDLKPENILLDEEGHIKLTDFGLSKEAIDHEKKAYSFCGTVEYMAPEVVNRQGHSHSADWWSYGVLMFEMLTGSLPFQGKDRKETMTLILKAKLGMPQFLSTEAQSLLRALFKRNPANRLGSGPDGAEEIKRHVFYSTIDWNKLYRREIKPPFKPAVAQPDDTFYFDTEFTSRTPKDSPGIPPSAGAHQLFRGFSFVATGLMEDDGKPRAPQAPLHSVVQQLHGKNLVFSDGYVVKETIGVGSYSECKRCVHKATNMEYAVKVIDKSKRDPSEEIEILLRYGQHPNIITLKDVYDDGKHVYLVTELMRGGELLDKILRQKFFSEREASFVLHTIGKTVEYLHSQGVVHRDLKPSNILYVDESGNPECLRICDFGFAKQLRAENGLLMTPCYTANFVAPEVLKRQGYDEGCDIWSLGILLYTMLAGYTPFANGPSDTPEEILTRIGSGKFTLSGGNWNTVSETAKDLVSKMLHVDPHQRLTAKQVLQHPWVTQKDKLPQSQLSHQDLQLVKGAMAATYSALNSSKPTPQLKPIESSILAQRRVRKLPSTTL

Consider `NC(=O)c1cccc2cn(-c3ccc([C@@H]4CCCNC4)cc3)nc12` [Niraparib], for which the percent of control binding at 10 µM on NDR1 (setting [2]) was determined as 100%; on CLK2 (setting [2]) it was 36%; on MAP3K1 (setting [2]) it was 92%; in experiment [1] (setting [2]), 93%; at LZK (setting [2]) it was 96%; on HUNK (setting [2]), 98%. Further, the percent of control binding at 10 µM at PAK6 (setting [2]) came out at 93%.
On to `Cn1ncnc1[C@H]1c2n[nH]c(=O)c3cc(F)cc(c23)N[C@@H]1c1ccc(F)cc1` [Talazoparib], for which the percent of control binding at 10 µM at NDR1 (setting [3]) is 72%; on CLK2 (setting [3]) it was 94%; on MAP3K1 (setting [3]), 97%; in experiment [1] (setting [3]), 100%; at LZK (setting [3]), 100%; on HUNK (setting [3]), 100%. Moreover, on PAK6 (setting [3]), the percent of control binding at 10 µM is 90%.
Consider `CNCc1ccc(-c2[nH]c3cc(F)cc4c3c2CCNC4=O)cc1` [Rucaparib], for which the percent of control binding at 10 µM stood at 69% on NDR1 (setting [4]); 32% on CLK2 (setting [4]); 98% at MAP3K1 (setting [4]); 70% in experiment [1] (setting [4]); 100% on LZK (setting [4]); 100% at HUNK (setting [4]). Besides, on PAK6 (setting [4]), the percent of control binding at 10 µM was 96%.
In the case of `O=C(c1cc(Cc2n[nH]c(=O)c3ccccc23)ccc1F)N1CCN(C(=O)C2CC2)CC1` [Olaparib], the percent of control binding at 10 µM came to 100% on NDR1 (setting [5]); 100% at CLK2 (setting [5]); 91% on MAP3K1 (setting [5]); 76% in experiment [1] (setting [5]); 100% at LZK (setting [5]); 88% at HUNK (setting [5]). Further, the percent of control binding at 10 µM at PAK6 (setting [5]) worked out at 87%.

The record behind these values is publication PMC7026418, “The kinase polypharmacology landscape of clinical PARP inhibitors” (Scientific Reports, 2020).
